Assay results as given in patent US20250302815A1, “PROTEIN TYROSINE PHOSPHATASE TARGETING LIGANDS” (CALICO LIFE SCIENCES LLC, priority 2021, published 2025).

Legend:
PTPN2 (B16F10.4 cells) = biological target: T1, PTPN2 (B16F10.4 cells) (Mus musculus, UniProt Q06180); experiment: HiBiT Degradation B16F10.4 PTPN2; format: cell-based; conditions: 24.0 hours
T1 construct: HiBiT; host or cells: B16F10.4
T1 sequence (Q06180 1-406): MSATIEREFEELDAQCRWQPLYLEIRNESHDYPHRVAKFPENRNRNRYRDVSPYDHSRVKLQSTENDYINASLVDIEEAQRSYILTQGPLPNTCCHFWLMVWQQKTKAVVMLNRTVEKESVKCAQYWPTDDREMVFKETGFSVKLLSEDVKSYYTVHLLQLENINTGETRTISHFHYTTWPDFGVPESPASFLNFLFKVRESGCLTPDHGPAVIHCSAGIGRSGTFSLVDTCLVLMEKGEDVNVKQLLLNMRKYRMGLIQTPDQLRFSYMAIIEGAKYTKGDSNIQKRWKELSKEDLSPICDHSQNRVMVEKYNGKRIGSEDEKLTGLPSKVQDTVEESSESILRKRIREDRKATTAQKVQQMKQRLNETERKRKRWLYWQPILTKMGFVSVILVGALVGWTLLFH

[1] = biological target: T2, PTPN2 (HiBIT-PTPN2 in 293T.109 cells) (Homo sapiens, UniProt P17706); experiment: HiBiT Degradation 293T.109 PTPN2 (Nano-Glo HiBiT Lytic Assay); format: cell-based; conditions: 24.0 hours
T2 construct: expressed in transfected cells; host or cells: 293T.109 (293T WT from ATCC)
T2 sequence (P17706 1-415): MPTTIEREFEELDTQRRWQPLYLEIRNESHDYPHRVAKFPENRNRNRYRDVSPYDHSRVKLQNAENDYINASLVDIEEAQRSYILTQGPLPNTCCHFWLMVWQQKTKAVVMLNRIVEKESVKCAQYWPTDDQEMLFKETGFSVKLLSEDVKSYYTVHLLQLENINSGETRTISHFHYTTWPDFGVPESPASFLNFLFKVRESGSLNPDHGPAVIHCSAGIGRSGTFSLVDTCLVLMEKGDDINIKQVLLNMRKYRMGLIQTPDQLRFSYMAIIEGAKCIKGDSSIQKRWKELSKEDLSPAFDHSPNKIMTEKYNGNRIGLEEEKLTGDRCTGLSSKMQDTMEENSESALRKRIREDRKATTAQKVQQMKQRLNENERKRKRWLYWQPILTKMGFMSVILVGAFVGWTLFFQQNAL
Method in brief: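 Degradation read-out: lytic HiBiT luminescence after 24 h treatment (37 °C, 5% CO2) of 5000 293T cells per well expressing HiBiT-fused PTPN2 from an N-terminal tag. Dosing was 11 points, half-log steps down from 10 μM, in duplicate; vehicle-treated and no-reagent wells served as controls.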

SMILES | DC50 (PTPN2 (B16F10.4 cells)) | DC50 [1]
Cn1c(=O)n(C2CCC(=O)NC2=O)c2ccc(N3CCC(OCC(=O)Nc4cccc(CS(=O)(=O)N5CC[C@H](Nc6cccc(-c7sc(C(=O)O)c(OCC(=O)O)c7Cl)c6)CC5(C)C)c4)CC3)cc21 (stereo partly drawn) [Example 105, 3-(carboxymethoxy)-4-chloro-5-[3-[[(4S)-1-[[3-[[2-[[1-[1-(2,6-dioxo-3-piperidyl)-3-methyl-2-oxo-benzimidazol-5-yl]-4-piperidyl]oxy]acetyl]amino]phenyl]methylsulfonyl]-2,2-dimethyl-4-piperidyl]amino]phenyl]thiophene-2-carboxylic acid] | 200 to 1000 nM | 50 to 200 nM
Cn1c(=O)n(C2CCC(=O)NC2=O)c2ccc(N3CC(OCC(=O)Nc4cccc(CS(=O)(=O)N5CC[C@H](Nc6cccc(-c7sc(C(=O)O)c(OCC(=O)O)c7Cl)c6)CC5(C)C)c4)C3)cc21 (stereo partly drawn) [Example 107, 3-(carboxymethoxy)-4-chloro-5-[3-[[(4S)-1-[[3-[[2-[1-[1-(2,6-dioxo-3-piperidyl)-3-methyl-2-oxo-benzimidazol-5-yl]azetidin-3-yl]oxyacetyl]amino]phenyl]methylsulfonyl]-2,2-dimethyl-4-piperidyl]amino]phenyl]thiophene-2-carboxylic acid] | 200 to 1000 nM | 50 to 200 nM
CC1(C)C[C@H](Nc2cccc(-c3sc(C(=O)O)c(OCC(=O)O)c3Cl)c2)CCN1S(=O)(=O)Cc1ccc(F)c(NC(=O)C2CN(C(=O)CNc3cccc4c3CN(C3CCC(=O)NC3=O)C4=O)C2)c1 (stereo partly shown) [Example 108] | ≥ 1000 nM | 50 to 200 nM
CC1(C)C[C@@H](Nc2cccc(-c3sc(C(=O)O)c(OCC(=O)O)c3Cl)c2)CCN1S(=O)(=O)Cc1ccc(F)c(NC(=O)C2CN(C(=O)CNc3cccc4c3CN(C3CCC(=O)NC3=O)C4=O)C2)c1 (stereo partly shown) [Example 109] | 200 to 1000 nM | < 50 nM
CC1(C)C[C@@H](Nc2cccc(-c3sc(C(=O)O)c(OCC(=O)O)c3Cl)c2)CCN1S(=O)(=O)Cc1ccc(F)c(NC(=O)[C@H]2[C@@H]3CN(C(=O)CNc4cccc5c4CN(C4CCC(=O)NC4=O)C5=O)C[C@@H]32)c1 (stereo partly drawn) [Example 110, 3-(carboxymethoxy)-4-chloro-5-(3-(((4S)-1-((3-((1R,5S,6r)-3-((2-(2,6-dioxopiperidin-3-yl)-1-oxoisoindolin-4-yl)glycyl)-3-azabicyclo[3.1.0]hexane-6-carboxamido)-4-fluorobenzyl)sulfonyl)-2,2-dimethylpiperidin-4-yl)amino)phenyl)thiophene-2-carboxylic acid] | 200 to 1000 nM | 50 to 200 nM
CC1(C)C[C@H](Nc2cccc(-c3sc(C(=O)O)c(OCC(=O)O)c3Cl)c2)CCN1S(=O)(=O)Cc1ccc(F)c(NC(=O)[C@H]2[C@@H]3CN(C(=O)CNc4cccc5c4CN(C4CCC(=O)NC4=O)C5=O)C[C@@H]32)c1 (stereo partly drawn) [Example 111, 3-(carboxymethoxy)-4-chloro-5-(3-(((4R)-1-((3-((1R,5S,6r)-3-((2-(2,6-dioxopiperidin-3-yl)-1-oxoisoindolin-4-yl)glycyl)-3-azabicyclo[3.1.0]hexane-6-carboxamido)-4-fluorobenzyl)sulfonyl)-2,2-dimethylpiperidin-4-yl)amino)phenyl)thiophene-2-carboxylic acid] | ≥ 1000 nM | 200 to 1000 nM
Cn1c(=O)n(C2CCC(=O)NC2=O)c2ccc(C3CCN(C(=O)Nc4cccc(CS(=O)(=O)N5CCC(Nc6cccc(-c7sc(C(=O)O)c(OCC(=O)O)c7Cl)c6)CC5(C)C)c4F)CC3)cc21 (stereo not shown) [Example 115, 3-(carboxymethoxy)-4-chloro-5-[3-[[1-[[3-[[4-[1-(2,6-dioxo-3-piperidyl)-3-methyl-2-oxo-benzimidazol-5-yl]piperidine-1-carbonyl]amino]-2-fluoro-phenyl]methylsulfonyl]-2,2-dimethyl-4-piperidyl]amino]phenyl]thiophene-2-carboxylic acid] | 200 to 1000 nM | 50 to 200 nM
Cn1c(=O)n(C2CCC(=O)NC2=O)c2ccc(N3CCC(OC(=O)Nc4cccc(CS(=O)(=O)N5CC[C@H](Nc6cccc(-c7sc(C(=O)O)c(OCC(=O)O)c7Cl)c6)CC5(C)C)c4)CC3)cc21 (stereo partly drawn) [Example 117, 3-(carboxymethoxy)-4-chloro-5-[3-[[(4S)-1-[[3-[[1-[1-(2,6-dioxo-3-piperidyl)-3-methyl-2-oxo-benzimidazol-5-yl]-4-piperidyl]oxycarbonylamino]phenyl]methylsulfonyl]-2,2-dimethyl-4-piperidyl]amino]phenyl]thiophene-2-carboxylic acid] | 50 to 200 nM | 50 to 200 nM
Cn1c(=O)n(C2CCC(=O)NC2=O)c2ccc(OC3CCN(C(=O)Nc4cccc(CS(=O)(=O)N5CC[C@H](Nc6cccc(-c7sc(C(=O)O)c(OCC(=O)O)c7Cl)c6)CC5(C)C)c4)CC3)cc21 (stereo partly shown) [Example 118] | 50 to 200 nM | 200 to 1000 nM

Other lines, results leading:

DC50 (PTPN2 (B16F10.4 cells)) | DC50 [1] | SMILES
50 to 200 nM | 50 to 200 nM | Cn1c(=O)n(C2CCC(=O)NC2=O)c2ccc(C3CN(C(=O)Nc4cccc(CS(=O)(=O)N5CC[C@H](Nc6cccc(-c7sc(C(=O)O)c(OCC(=O)O)c7Cl)c6)CC5(C)C)c4)C3)cc21 (stereo partly drawn) [Example 106, 3-(carboxymethoxy)-4-chloro-5-[3-[[(4S)-1-[[3-[[3-[1-(2,6-dioxo-3-piperidyl)-3-methyl-2-oxo-benzimidazol-5-yl]azetidine-1-carbonyl]amino]phenyl]methylsulfonyl]-2,2-dimethyl-4-piperidyl]amino]phenyl]thiophene-2-carboxylic acid]
50 to 200 nM | 50 to 200 nM | Cn1c(=O)n(C2CCC(=O)NC2=O)c2ccc(N3CCC(C(=O)Nc4cccc(CS(=O)(=O)N5CCC(Nc6cccc(-c7sc(C(=O)O)c(OCC(=O)O)c7Cl)c6)CC5)c4)CC3)cc21 (stereo not shown) [Example 112, 3-(carboxymethoxy)-4-chloro-5-[3-[[1-[[3-[[1-[1-(2,6-dioxo-3-piperidyl)-3-methyl-2-oxo-benzimidazol-5-yl]piperidine-4-carbonyl]amino]phenyl]methylsulfonyl]-4-piperidyl]amino]phenyl]thiophene-2-carboxylic acid]
50 to 200 nM | 50 to 200 nM | Cn1c(=O)n(C2CCC(=O)NC2=O)c2ccc(N3CC4(CCN(C(=O)Nc5cccc(CS(=O)(=O)N6CCC(Nc7cccc(-c8sc(C(=O)O)c(OCC(=O)O)c8Cl)c7)CC6)c5)CC4)C3)cc21 (stereo not shown) [Example 113, 3-(carboxymethoxy)-4-chloro-5-[3-[[1-[[3-[[2-[1-(2,6-dioxo-3-piperidyl)-3-methyl-2-oxo-benzimidazol-5-yl]-2,7-diazaspiro[3.5]nonane-7-carbonyl]amino]phenyl]methylsulfonyl]-4-piperidyl]amino]phenyl]thiophene-2-carboxylic acid]
< 50 nM | 50 to 200 nM | Cn1c(=O)n(C2CCC(=O)NC2=O)c2ccc(C3CCN(C(=O)Nc4cc(CS(=O)(=O)N5CCC(Nc6cccc(-c7sc(C(=O)O)c(OCC(=O)O)c7Cl)c6)CC5(C)C)ccc4F)CC3)cc21 (stereo not shown) [Example 114, 3-(carboxymethoxy)-4-chloro-5-[3-[[1-[[3-[[4-[1-(2,6-dioxo-3-piperidyl)-3-methyl-2-oxo-benzimidazol-5-yl]piperidine-1-carbonyl]amino]-4-fluoro-phenyl]methylsulfonyl]-2,2-dimethyl-4-piperidyl]amino]phenyl]thiophene-2-carboxylic acid]
50 to 200 nM | 50 to 200 nM | Cn1c(=O)n(C2CCC(=O)NC2=O)c2ccc(OC3CN(C(=O)Nc4cccc(CS(=O)(=O)N5CC[C@H](Nc6cccc(-c7sc(C(=O)O)c(OCC(=O)O)c7Cl)c6)CC5(C)C)c4)C3)cc21 (stereo partly shown) [Example 116]
